Laboratory results as given in the NIST ThermoML archive (doi:10.1021/acs.jced.5b00978).

Legend:
[1] = Molar enthalpy of transition or fusion; details: Crystal; DSC

COC(=O)c1ccc(C=O)cc1 [methyl 4-formylbenzoate]
Details	vapor or sublimation pressure [kPa]
303.1 K, Crystal, Closed cell (Static) method	0.00069
305.04 K, Crystal, Closed cell (Static) method	0.00086
307.04 K, Crystal, Closed cell (Static) method	0.00109
309.04 K, Crystal, Closed cell (Static) method	0.00137
311.05 K, Crystal, Closed cell (Static) method	0.00173
313.01 K, Crystal, Closed cell (Static) method	0.00216
314.99 K, Crystal, Closed cell (Static) method	0.00268
317.07 K, Crystal, Closed cell (Static) method	0.00335
319.02 K, Crystal, Closed cell (Static) method	0.00412
321.01 K, Crystal, Closed cell (Static) method	0.00511
323.02 K, Crystal, Closed cell (Static) method	0.00635
324.99 K, Crystal, Closed cell (Static) method	0.0078
326.93 K, Metastable liquid, Closed cell (Static) method	0.01165
326.97 K, Crystal, Closed cell (Static) method	0.00965
328.93 K, Metastable liquid, Closed cell (Static) method	0.01357
328.97 K, Crystal, Closed cell (Static) method	0.01165
330.9 K, Metastable liquid, Closed cell (Static) method	0.01573
330.92 K, Crystal, Closed cell (Static) method	0.01405
332.84 K, Metastable liquid, Closed cell (Static) method	0.01823
334.84 K, Metastable liquid, Closed cell (Static) method	0.02122
336.84 K, Closed cell (Static) method, Liquid	0.02458
338.85 K, Closed cell (Static) method, Liquid	0.02803
340.8 K, Closed cell (Static) method, Liquid	0.03252
342.76 K, Closed cell (Static) method, Liquid	0.0371
344.76 K, Closed cell (Static) method, Liquid	0.04283
346.67 K, Closed cell (Static) method, Liquid	0.04856
348.71 K, Closed cell (Static) method, Liquid	0.05584
350.65 K, Closed cell (Static) method, Liquid	0.06347
352.66 K, Closed cell (Static) method, Liquid	0.07223
354.52 K, Closed cell (Static) method, Liquid	0.08123
356.6 K, Closed cell (Static) method, Liquid	0.09314
358.58 K, Closed cell (Static) method, Liquid	0.1051
360.55 K, Closed cell (Static) method, Liquid	0.1182
362.49 K, Closed cell (Static) method, Liquid	0.1338
364.51 K, Closed cell (Static) method, Liquid	0.1519
366.47 K, Closed cell (Static) method, Liquid	0.1698
368.46 K, Closed cell (Static) method, Liquid	0.1902
370.41 K, Closed cell (Static) method, Liquid	0.2138
372.39 K, Closed cell (Static) method, Liquid	0.2395
374.28 K, Closed cell (Static) method, Liquid	0.2657
376.36 K, Closed cell (Static) method, Liquid	0.298
378.24 K, Closed cell (Static) method, Liquid	0.3306
380.3 K, Closed cell (Static) method, Liquid	0.3693
382.21 K, Closed cell (Static) method, Liquid	0.4085
384.22 K, Closed cell (Static) method, Liquid	0.4558
386.18 K, Closed cell (Static) method, Liquid	0.5028
388.17 K, Closed cell (Static) method, Liquid	0.562

Details	Normal melting temperature [°C]
Crystal, DTA	62.1

Details	Molar enthalpy of transition or fusion [kcal/mol]
[1]	5.11

COC(=O)c1ccc(C#N)cc1 [methyl p-cyanobenzoate]
Closed cell (Static) method
Details	vapor or sublimation pressure [kPa]
303.93 K, Crystal	0.00066
306.95 K, Crystal	0.00092
309.92 K, Crystal	0.0013
312.93 K, Crystal	0.00183
315.91 K, Crystal	0.00252
318.88 K, Crystal	0.00347
321.94 K, Crystal	0.00479
324.93 K, Crystal	0.00649
327.89 K, Crystal	0.00872
330.89 K, Crystal	0.01165
333.86 K, Crystal	0.01562
336.84 K, Crystal	0.02058
339.83 K, Liquid	0.02686
342.81 K, Liquid	0.0331
345.8 K, Liquid	0.04054
348.76 K, Liquid	0.04932
351.75 K, Liquid	0.06007
354.72 K, Liquid	0.07314
357.79 K, Liquid	0.08912
360.66 K, Liquid	0.1059
363.64 K, Liquid	0.1276
366.47 K, Liquid	0.1508
369.42 K, Liquid	0.1793
372.4 K, Liquid	0.2131
375.39 K, Liquid	0.2508
378.3 K, Liquid	0.2957
381.25 K, Liquid	0.3487
384.19 K, Liquid	0.4061
387.18 K, Liquid	0.4767
390.14 K, Liquid	0.5554
393.05 K, Liquid	0.644

Details	Normal melting temperature [°C]
Crystal, DTA	65.1

Details	Molar enthalpy of transition or fusion [kcal/mol]
[1]	5.21
